Data published in US9248122B2, “Heteroquinoline-3-carboxamides as KCNQ2/3 modulators” (GRÜNENTHAL GMBH, priority 2012, dated 2016).

Columns and labels:
KCNQ2/3 channels = target: T1, KCNQ2/3 channels (Homo sapiens, UniProt O43525+O43526); test: Fluorescence assay using a voltage sensitive dye (fluorimetry); assay type: cell-based; conditions: CHO-K1 cells expressing KCNQ2/3 channels; for Emax: relative to retigabine = 100%, read-out: Fluorimetry % efficacy (retigabine = 100%)
T1 construct: expressed in transfected cells
Procedure: Pharmacological Experiments Method I. Fluorescence Assay Using a Voltage Sensitive Dye
Human CHO—K1 cells expressing KCNQ2/3 channels are cultivated adherently at 37° C., 5% CO2 and 95% humidity in cell culture bottles (e.g. 80 cm^2 TC flasks, Nunc) with DMEM-high glucose (Sigma Aldrich, D7777) including 10% FCS (PAN Biotech, e.g. 3302-P270521) or alternatively MEM Alpha Medium (lx, liquid, Invitrogen, #22571), 10% fetal calf serum (FCS) (Invitrogen, #10270-106, heat-inactivated) and the necessary selection antibiotics.
Before being sown out for the measurements, the cells are washed with a 1×DPBS buffer without Ca^2+/Mg^2+ (e.g. Invitrogen, #14190-094) and detached from the bottom of the culture vessel by means of Accutase (PAA Laboratories, #L11-007) (incubation with Accutase for 15 min at 37° C.). The cell count then present is determined using a CASY™ cell counter (TCC model, Scharfe System) in order subsequently to apply, depending on the density optimization for the individual cell line, 20,000-30,000 cells/well/100 μl of the described nutrient medium to 96-well measuring plates of the Corning™ CeIIBIND™ type (Flat Clear Bottom Black Polystyrene Microplates, #3340). Incubation is then carried out for one hour at room temperature, without gassing or adjusting the humidity, followed by incubation for 24 hours at 37° C., 5% CO2 and 95% humidity.
The voltage-sensitive fluorescent dye from the Membrane Potential Assay Kit (Red™ Bulk format part R8123 for FLIPR, MDS Analytical Technologies™) is prepared by dissolving the contents of a vessel Membrane Potential Assay Kit Red Component A in 200 ml of extracellular buffer (ES buffer, 120 mM NaCl, 1 mM KCl, 10 mM HEPES, 2 mM CaCl2, 2 mM MgCl2, 10 mM glucose; pH 7.4). After removal of the nutrient medium, the cells are washed with 200 μl of ES buffer, then covered with a layer of 100 μl of the dye solution prepared above and incubated for 45 min at room temperature with the exclusion of light.
The fluorescence measurements are carried out with a BMG Labtech FLUOstar™, BMG Labtech NOVOstar™ or BMG Labtech POLARstar™ instrument (525 nm excitation, 560 nm emission, Bottom Read mode). After incubation of the dye, 50 μl of the test substances in the desired concentrations, or 50 μl of ES buffer for control purposes, are introduced into separate cavities of the measuring plate and incubated for 30 min at room temperature while being shielded from light. The fluorescence intensity of the dye is then measured for 5 min and the fluorescence value F1 of each well is thus determined at a given, constant time. 15 μl of a […] KCl solution ([…]) are then added to each well. The change in fluorescence is subsequently measured until all the relevant measured values have been obtained (mainly 5-30 min). At a given time after KCl application, a fluorescence value F2 is determined, in this case at the time of the fluorescence peak.
For calculation, the fluorescence intensity F2 is corrected for the fluorescence intensity F1, and the activity (ΔF/F) of the target compound on the potassium channel is determined as follows:
In order to determine whether a substance has agonistic activity,
A substance has an agonistic activity on the potassium channel if
Calculations of EC50 and IC50 values are carried out with the aid of ‘Prism v4.0’ software (GraphPad Software™)

[1] = test system: withdrawal reflex of the rat tail (tail flick); test: Low-intensity tail flick test (rat); assay type: in vivo; conditions: dose 10 mg/kg
Procedure: Method II. Low-Intensity Tail Flick Test (Rat)
In the low-intensity tail flick test, the determination of the antinociceptive effect of the compounds according to the invention towards an acute noxious thermal stimulus is carried out by measuring the withdrawal reflex of the rat tail (tail flick) in response to a radiant heat beam (analgesia meter; model 2011 of the company Rhema Labortechnik, Hofheim, Germany) according to the method described by D'Amour and Smith (J. Pharm. Exp. Ther. 72, 74 79 (1941). To this end, the rats were placed in a plexiglas restrainer, and a low-intensity radiant heat beam (48° C.) was focused onto the dorsal surface of the tail root. The stimulus intensity was adjusted to result in a mean pre-drug control withdrawal latency of about 7 s, thus also allowing a supraspinal modulation of the spinally mediated acute nociceptive reflex. […] Before administration of a compound according to the invention, the animals were pre-tested twice in the course of five minutes and the mean of these measurements was calculated as the pre-test mean. The antinociceptive effect was determined at 20, 40 and 60 min after peroral compound administration. The antinociceptive effect was calculated based on the increase in the tail withdrawal latency according to the following formula and is expressed as percentage of the maximum possible effect (MPE [%]): MPE=[(T1−T0)/(T2−T0)]*100 […]

| Compound | EC50 (KCNQ2/3 channels) [nM] | Emax (KCNQ2/3 channels) [%] | Low intensity tail flick, rat, peroral, ED50 or MPE (dose) [mg/kg] [1] |
| --- | --- | --- | --- |
| CCSc1nc2cc(C(F)(F)F)cnc2c(C)c1C(=O)NCc1cccc(F)c1 [Example 1, 2-Ethylsulfanyl-N-[(3-fluorophenyl)-methyl]-4-methyl-7-(trifluoromethyl)-[1,5]naphthyridine-3-carboxylic acid amide] | 84 | 156 |  |
| CCSc1nc2cnccc2c(C)c1C(=O)NCc1cccc(F)c1 [Example 2, 2-Ethylsulfanyl-N-[(3-fluorophenyl)-methyl]-4-methyl-[1,7]naphthyridine-3-carboxylic acid amide] | 2190 | 62 |  |
| CCSc1nc2ccncc2c(C)c1C(=O)NCc1ccc(F)cc1 [Example 3, 2-Ethylsulfanyl-N-[(4-fluorophenyl)-methyl]-4-methyl-[1,6]naphthyridine-3-carboxylic acid amide] |  | 34 |  |
| CCSc1nc2sccc2c(C)c1C(=O)NCc1cccc(F)c1 [Example 4, 6-Ethylsulfanyl-N-[(3-fluorophenyl)-methyl]-4-methyl-thieno[2,3-b]pyridine-5-carboxylic acid amide] |  | 31 |  |
| CCOc1nc2cc(C(F)(F)F)sc2c(C)c1C(=O)NCc1cccc(F)c1 [Example 5, 5-Ethoxy-N-[(3-fluorophenyl)-methyl]-7-methyl-2-(trifluoromethyl)-thieno[3,2-b]pyridine-6-carboxylic acid amide] | 51 | 121 |  |
| CCSc1nc2nc(C(F)(F)F)ccc2c(C)c1C(=O)NCc1cccc(F)c1 [Example 6, 2-Ethylsulfanyl-N-[(3-fluorophenyl)-methyl]-4-methyl-7-(trifluoromethyl)-[1,8]naphthyridine-3-carboxylic acid amide] | 683 | 152 |  |
| CCSc1nc2nc(C(F)(F)F)ccc2c(C)c1C(=O)NCc1ccc(F)cc1 [Example 7, 2-Ethylsulfanyl-N-[(4-fluorophenyl)-methyl]-4-methyl-7-(trifluoromethyl)-[1,8]naphthyridine-3-carboxylic acid amide] | 412 | 132 | 16 (10) % |
| CCSc1nc2cccnc2c(C)c1C(=O)NCc1cccc(F)c1 [Example 8, 2-Ethylsulfanyl-N-[(3-fluorophenyl)-methyl]-4-methyl-[1,5]naphthyridine-3-carboxylic acid amide] |  | 9 |  |
| CCSc1nc2cccnc2c(C)c1C(=O)NCc1ccc(F)cc1 [Example 9, 2-Ethylsulfanyl-N-[(4-fluorophenyl)-methyl]-4-methyl-[1,5]naphthyridine-3-carboxylic acid amide] |  | 6 |  |
| CCSc1nc2cc(C(F)(F)F)cnc2c(C)c1C(=O)NCc1ccc(F)cc1 [Example 10, 2-Ethylsulfanyl-N-[(4-fluorophenyl)-methyl]-4-methyl-7-(trifluoromethyl)-[1,5]naphthyridine-3-carboxylic acid amide] | 101 | 148 |  |
| CCSc1nc2cc(C(F)(F)F)ncc2c(C)c1C(=O)NCc1cccc(F)c1 [Example 11, 2-Ethylsulfanyl-N-[(3-fluorophenyl)-methyl]-4-methyl-7-(trifluoromethyl)-[1,6]naphthyridine-3-carboxylic acid amide] | 201 | 101 |  |
| CCSc1nc2cc(C(F)(F)F)ncc2c(C)c1C(=O)NCc1ccc(F)cc1 [Example 12, 2-Ethylsulfanyl-N-[(4-fluorophenyl)-methyl]-4-methyl-7-(trifluoromethyl)-[1,6]naphthyridine-3-carboxylic acid amide] | 301 | 97 |  |
| CCSc1nc2ccncc2c(C)c1C(=O)NCc1cccc(F)c1 [Example 13, 2-Ethylsulfanyl-N-[(3-fluorophenyl)-methyl]-4-methyl-[1,6]naphthyridine-3-carboxylic acid amide] |  | 32 |  |
| CCSc1nc2ccsc2c(C)c1C(=O)NCc1cccc(F)c1 [Example 14, 5-Ethylsulfanyl-N-[(3-fluorophenyl)-methyl]-7-methyl-thieno[3,2-b]pyridine-6-carboxylic acid amide] | 650 | -39 |  |
| CCSc1nc2cnccc2c(C)c1C(=O)NCc1ccc(F)cc1 [Example 15, 2-Ethylsulfanyl-N-[(4-fluorophenyl)-methyl]-4-methyl-[1,7]naphthyridine-3-carboxylic acid amide] |  | 34 |  |
| CCSc1nc2ncccc2c(C)c1C(=O)NCc1ccc(F)cc1 [Example 16, 2-Ethylsulfanyl-N-[(4-fluorophenyl)-methyl]-4-methyl-[1,8]naphthyridine-3-carboxylic acid amide] |  | 10 |  |
| CCSc1nc2ncccc2c(C)c1C(=O)NCc1cccc(F)c1 [Example 17, 2-Ethylsulfanyl-N-[(3-fluorophenyl)-methyl]-4-methyl-[1,8]naphthyridine-3-carboxylic acid amide] |  | 10 |  |
| CCOc1nc2sc(C(F)(F)F)cc2c(C)c1C(=O)NCc1cccc(F)c1 [Example 18, 6-Ethoxy-N-[(3-fluorophenyl)-methyl]-4-methyl-2-(trifluoromethyl)-thieno[2,3-b]pyridine-5-carboxylic acid amide] | 63 | 112 |  |
